Data reported in PMC3389674, “Comparison of Soluble Guanylate Cyclase Stimulators and Activators in Models of Cardiovascular Disease Associated with Oxidative Stress” (Frontiers in Pharmacology, 2012).

Legend:
WKY rat isolated aorta = test: vasodilation of phenylephrine-contracted WKY rat isolated aorta with and without ODQ
Protocol: Male Wistar Kyoto (WKY; Charles River Laboratories, Inc., Raleigh, NC, USA) were anesthetized with inhaled isoflurane (5% in O2) and euthanized by exsanguination. Thoracic aorta was isolated, cleaned of adherent tissue, cut into 3 mm rings, and suspended in 10 mL organ baths containing Krebs–Henseleit buffer (KHB) of the following composition (mM): NaCl, 112.0; KCl, 4.7; KH2PO4, 1.2; MgSO4, 1.2; CaCl2, 2.5; NaHCO3, 25.0; glucose, 11.0. KHB was maintained at 37°C and aerated with 95%O2:5%CO2 (pH 7.4). Changes in isometric force were measured under 1g optimal resting tension using MLT0201/D force-displacement transducers (Letica, Barcelona, Spain) and recorded digitally (Chart 5.0 software, ADInstruments, Colorado Springs, CO, USA). After a 1 h equilibration period, each tissue was contracted to equilibrium with 60 mM KCl, washed with KHB and allowed to relax to the resting tension. The 60 mM KCl contraction was repeated and subsequent contractile responses were normalized to this second KCl response. Each tissue was then contracted to equilibration with 1 μM phenylephrine, washed with KHB and allowed to relax to the resting tension. In order to further investigate the mechanism by which BAY 60-4552 and GSK2181236A were modulating sGC function, the vasodilatory effects of both compounds were assessed in the presence and absence of ODQ, a heme-site inhibitor of sGC. Following a 20 min pre-treatment with DMSO vehicle (0.1% final concentration, v/v) or ODQ (10 μM), aortae were contracted with 0.3 μM phenylephrine (an approximate EC80 concentration). Once the contractile response to phenylephrine reached a plateau (∼10 min), contractile tone was reversed by adding cumulative concentrations of BAY 60-4552 or GSK2181236A to the tissue baths at log increments (0.1 nM to 10 μM).

rat sGC = molecular target: T1, rat sGC (Rattus norvegicus, UniProt P20595); test: primary cell-free rat sGC enzyme assay (cGMP formation); format: biochemical; details: data not shown
T1 sequence (P20595 1-619): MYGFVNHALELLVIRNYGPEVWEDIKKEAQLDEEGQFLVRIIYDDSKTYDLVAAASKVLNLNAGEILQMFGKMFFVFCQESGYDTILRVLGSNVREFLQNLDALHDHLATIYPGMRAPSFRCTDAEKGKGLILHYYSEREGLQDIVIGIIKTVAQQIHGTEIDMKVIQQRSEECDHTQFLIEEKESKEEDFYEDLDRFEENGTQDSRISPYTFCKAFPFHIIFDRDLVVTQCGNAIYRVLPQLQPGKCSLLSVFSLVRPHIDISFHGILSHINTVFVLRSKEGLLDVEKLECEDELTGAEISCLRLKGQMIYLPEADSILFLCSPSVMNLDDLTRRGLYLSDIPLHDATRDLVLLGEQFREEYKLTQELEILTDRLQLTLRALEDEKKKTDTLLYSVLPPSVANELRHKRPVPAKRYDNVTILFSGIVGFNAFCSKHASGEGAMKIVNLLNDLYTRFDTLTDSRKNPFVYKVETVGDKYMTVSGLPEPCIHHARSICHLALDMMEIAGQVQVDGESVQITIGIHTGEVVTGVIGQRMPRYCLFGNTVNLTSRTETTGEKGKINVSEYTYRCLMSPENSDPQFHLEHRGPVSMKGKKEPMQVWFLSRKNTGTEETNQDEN
T1 sequence (P19686 1-690 partner): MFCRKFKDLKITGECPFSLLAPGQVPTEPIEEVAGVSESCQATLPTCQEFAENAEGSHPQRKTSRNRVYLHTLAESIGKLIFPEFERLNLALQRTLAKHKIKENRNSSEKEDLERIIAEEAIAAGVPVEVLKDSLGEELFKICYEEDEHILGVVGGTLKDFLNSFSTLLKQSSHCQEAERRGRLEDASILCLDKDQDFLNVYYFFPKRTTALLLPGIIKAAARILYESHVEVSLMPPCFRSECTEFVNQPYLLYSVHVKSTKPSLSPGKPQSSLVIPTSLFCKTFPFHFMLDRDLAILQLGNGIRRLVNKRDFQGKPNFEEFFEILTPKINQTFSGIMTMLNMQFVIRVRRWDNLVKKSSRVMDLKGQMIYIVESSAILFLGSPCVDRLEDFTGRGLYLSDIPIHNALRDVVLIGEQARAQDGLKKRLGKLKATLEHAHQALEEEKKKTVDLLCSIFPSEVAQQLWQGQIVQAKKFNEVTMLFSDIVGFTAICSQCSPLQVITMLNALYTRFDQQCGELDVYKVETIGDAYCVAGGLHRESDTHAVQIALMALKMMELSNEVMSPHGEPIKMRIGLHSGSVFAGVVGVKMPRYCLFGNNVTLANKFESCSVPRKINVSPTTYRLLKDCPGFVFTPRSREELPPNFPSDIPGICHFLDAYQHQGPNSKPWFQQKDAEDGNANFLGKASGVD

Row | Structure (SMILES) | reduction of vasodilatory response by ODQ (WKY rat isolated aorta; 0.1 μM compound, ODQ 10 μM) | reduction of vasodilatory response by ODQ (WKY rat isolated aorta; 1 μM compound, ODQ 10 μM) | EC50 (rat sGC) | increase of vasodilatory response by ODQ (WKY rat isolated aorta; 0.1 μM compound, ODQ 10 μM) | increase of vasodilatory response by ODQ (WKY rat isolated aorta; 1 μM compound, ODQ 10 μM) | increase of vasodilatory response by ODQ (WKY rat isolated aorta; 10 μM compound)
1 | COC(=O)Nc1c(N)nc(-c2nn(Cc3ccccc3F)c3ncccc23)nc1N [BAY 60-4552] | 48% | 30% |  |  |  | 
2 | Cc1cc(-c2ccc(OC(F)(F)F)cc2)ccc1COc1ccccc1-c1cccc(-n2ncc(C(=O)O)c2C(F)(F)F)n1 [GSK2181236A, 1-(6-{2-[({3-methyl-4′-[(trifluoromethyl)oxy]-4-biphenylyl}methyl)oxy]phenyl}-2-pyridinyl)-5-(trifluoromethyl)-1H-pyrazole-4-carboxylic acid] |  |  | 27 nM | 41% | 36% | 21%
